In PubChem BioAssay AID220 (DTP/NCI, 2004):
“And” between values parts separate entries of the source, which are not always exact repeats. Equal entries are not always repeated. Records with an inconclusive call do not appear.

Test system: CD8F1 mice, subcutaneous mammary adenocarcinoma, T/C%
Test: NCI In Vivo Anticancer Drug Screen. Data for tumor model Mammary Adenocarcinoma CD8F1 (subcutaneous) in CD8F1
Conditions: higher = larger tumour
In short: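 Mice carrying transplanted tumors received test compound, and survival or tumor size was recorded. Each value is the treated-group measurement divided by the corresponding measurement in vehicle-dosed controls.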

[1] = endpoint: median tumor weight change, dose: 250.0 mg/kg/injection, schedule: Q01DX001 (ip), vehicle: suspension in saline

With `Nc1n[n+](-c2ccccc2)no1` the T/C (endpoint: median tumor weight (est.), dose: 3.12 mg/kg/injection, schedule: Q07DX005 (ip), vehicle: water) was 82 % of control, the T/C (endpoint: median tumor weight (est.), dose: 50.0 mg/kg/injection, schedule: Q07DX005 (ip), vehicle: water) was 10 % of control and 34 % of control and the T/C (endpoint: median tumor weight change, dose: 16.0 mg/kg/injection, schedule: Q01DX001 (ip), vehicle: water) was 39 % of control. For the same compound, the T/C (endpoint: median tumor weight change, dose: 31.0 mg/kg/injection, schedule: Q01DX001 (ip), vehicle: water) was 70 % of control and the T/C (endpoint: median tumor weight change, dose: 62.0 mg/kg/injection, schedule: Q01DX001 (ip), vehicle: water) was 35 % of control.

With `CCCCOC(=O)/C=C(\Br)C(=O)OCCCC` the T/C (endpoint: median tumor weight (est.), dose: 12.5 mg/kg/injection, schedule: Q07DX005 (ip), vehicle: saline with Tween-80) was 115 % of control, the T/C (endpoint: median tumor weight (est.), dose: 25.0 mg/kg/injection, schedule: Q07DX005 (ip), vehicle: saline with Tween-80) was 95 % of control and 119 % of control and the T/C (endpoint: median tumor weight (est.), dose: 100.0 mg/kg/injection, schedule: Q07DX005 (ip), vehicle: saline with Tween-80) was 100 % of control and 119 % of control. For the same compound, the T/C (endpoint: median tumor weight (est.), dose: 200.0 mg/kg/injection, schedule: Q07DX005 (ip), vehicle: saline with Tween-80) was 114 % of control.

With `CN=C(N)N/N=C(\C)c1ccc2c(c1)Cc1ccccc1-2` the T/C (endpoint: median tumor weight change, dose: 125.0 mg/kg/injection, schedule: Q01DX001 (ip), vehicle: saline with Tween-80) was 60 % of control and the T/C (endpoint: median tumor weight change, dose: 250.0 mg/kg/injection, schedule: Q01DX001 (ip), vehicle: saline with Tween-80) was 55 % of control.

For `C/C=C/C1=CC(=O)C(O)C1O` (centres undefined), the T/C (endpoint: median tumor weight (est.), dose: 45.0 mg/kg/injection, schedule: Q07DX005 (ip), vehicle: water) was 122 % of control, the T/C (endpoint: median tumor weight (est.), dose: 90.0 mg/kg/injection, schedule: Q07DX005 (ip), vehicle: water) was 78 % of control and the T/C (endpoint: median tumor weight (est.), dose: 180.0 mg/kg/injection, schedule: Q07DX005 (ip), vehicle: water) was 107 % of control.

`CCCCNC(C)[C@]1(O)Cc2c(O)c3c(c(O)c2[C@@H](OC2CC(N)C(O)C(C)O2)C1)C(=O)c1c(OC)cccc1C3=O` (some centres undefined) was tested, and the T/C (endpoint: median tumor weight (est.), dose: 2.67 mg/kg/injection, schedule: Q07DX005 (ip), vehicle: water) was 89 % of control, the T/C (endpoint: median tumor weight (est.), dose: 4.0 mg/kg/injection, schedule: Q07DX005 (ip), vehicle: water) was 74 % of control and the T/C (endpoint: median tumor weight (est.), dose: 6.0 mg/kg/injection, schedule: Q07DX005 (ip), vehicle: water) was 47 % of control.

For `CC[C@H]1CN2CCc3cc(OC)c(OC)cc3[C@@H]2C[C@@H]1C[C@@H]1c2cc(OC)c(OC)cc2CCN1CCN(CCCl)CCCl`, the T/C (endpoint: mean tumor weight, dose: 2.5 mg/kg/injection, schedule: Q07DX005 (ip), vehicle: Klucel (hydroxypropylcellulose) (HPC)) was 195 % of control, the T/C (endpoint: mean tumor weight, dose: 5.0 mg/kg/injection, schedule: Q07DX005 (ip), vehicle: Klucel (hydroxypropylcellulose) (HPC)) was 181 % of control and the T/C (endpoint: mean tumor weight, dose: 5.0 mg/kg/injection, schedule: Q07DX006 (ip), vehicle: Klucel (hydroxypropylcellulose) (HPC)) was 89 % of control. The T/C (endpoint: mean tumor weight, dose: 10.0 mg/kg/injection, schedule: Q07DX005 (ip), vehicle: Klucel (hydroxypropylcellulose) (HPC)) was 160 % of control, the T/C (endpoint: mean tumor weight, dose: 10.0 mg/kg/injection, schedule: Q07DX006 (ip), vehicle: Klucel (hydroxypropylcellulose) (HPC)) was 169 % of control and the T/C (endpoint: mean tumor weight, dose: 20.0 mg/kg/injection, schedule: Q07DX006 (ip), vehicle: Klucel (hydroxypropylcellulose) (HPC)) was 159 % of control.

`O=c1[nH]c(=O)n(C2OC(CO)C(O)C2O)cc1F` (centres undefined) was tested, and the T/C (endpoint: median tumor weight (est.), dose: 1.56 mg/kg/injection, schedule: Q07DX005 (ip), vehicle: saline) was 79 % of control, the T/C (endpoint: median tumor weight (est.), dose: 3.12 mg/kg/injection, schedule: Q07DX005 (ip), vehicle: saline) was 103 % of control and the T/C (endpoint: median tumor weight (est.), dose: 6.25 mg/kg/injection, schedule: Q07DX005 (ip), vehicle: saline) was 75 % of control. For the same compound, the T/C (endpoint: median tumor weight (est.), dose: 12.5 mg/kg/injection, schedule: Q07DX005 (ip), vehicle: saline) was 45 % of control and the T/C (endpoint: median tumor weight (est.), dose: 25.0 mg/kg/injection, schedule: Q07DX005 (ip), vehicle: saline) was 11 % of control.

`Cc1cn(C2CC(F)C(CO)O2)c(=O)[nH]c1=O` (centres undefined) was tested, and the T/C [1] was 71 % of control, the T/C (endpoint: median tumor weight change, dose: 500.0 mg/kg/injection, schedule: Q01DX001 (ip), vehicle: suspension in saline) was 69 % of control and the T/C (endpoint: median tumor weight change, dose: 1000.0 mg/kg/injection, schedule: Q01DX001 (ip), vehicle: suspension in saline) was 79 % of control.

In the case of `Oc1ccc(O)cc1`, the T/C (endpoint: median tumor weight (est.), dose: 12.5 mg/kg/injection, schedule: Q07DX004 (ip), vehicle: saline) is reported as 36 % of control, the T/C (endpoint: median tumor weight (est.), dose: 25.0 mg/kg/injection, schedule: Q07DX004 (ip), vehicle: saline) is reported as 76 % of control and the T/C (endpoint: median tumor weight (est.), dose: 50.0 mg/kg/injection, schedule: Q07DX004 (ip), vehicle: saline) is reported as 68 % of control. For the same compound, the T/C (endpoint: median tumor weight (est.), dose: 100.0 mg/kg/injection, schedule: Q07DX004 (ip), vehicle: saline) was 57 % of control.

For `O=C(O)C(CSC(c1ccccc1)(c1ccccc1)c1ccccc1)N=Cc1cccs1` (centres undefined), the T/C (endpoint: median tumor weight change, dose: 62.5 mg/kg/injection, schedule: Q01DX001 (ip), vehicle: suspension in saline) was 112 % of control, the T/C (endpoint: median tumor weight change, dose: 125.0 mg/kg/injection, schedule: Q01DX001 (ip), vehicle: suspension in saline) was 111 % of control and the T/C (endpoint: median tumor weight change, dose: 250.0 mg/kg/injection, schedule: Q01DX001 (ip), vehicle: saline) was 64 % of control. The T/C [1] was 95 % of control.
